Data taken from ChEMBL document CHEMBL2157964, “Effect of alkyl chain length on sphingosine kinase 2 selectivity” (Bioorg Med Chem Lett, 2012).

Assays:
[1] = molecular target: T1, Sphingosine kinase 1 (Homo sapiens, UniProt Q9NYA1); assay: Inhibition of recombinant SphK1 expressed in baculovirus infected Sf9 cells using D-erythro-sphingosine as substrate and [32gammaP]ATP assessed as residual activity at 10 uM by scintillation counting
[2] = molecular target: T2, Sphingosine kinase 2 (Homo sapiens) (UniProt Q9NRA0); assay: Inhibition of recombinant SphK2 expressed in baculovirus infected Sf9 cells using D-erythro-sphingosine as substrate and [32gammaP]ATP assessed as residual activity at 10 uM by scintillation counting
T2 sequence (whole entry): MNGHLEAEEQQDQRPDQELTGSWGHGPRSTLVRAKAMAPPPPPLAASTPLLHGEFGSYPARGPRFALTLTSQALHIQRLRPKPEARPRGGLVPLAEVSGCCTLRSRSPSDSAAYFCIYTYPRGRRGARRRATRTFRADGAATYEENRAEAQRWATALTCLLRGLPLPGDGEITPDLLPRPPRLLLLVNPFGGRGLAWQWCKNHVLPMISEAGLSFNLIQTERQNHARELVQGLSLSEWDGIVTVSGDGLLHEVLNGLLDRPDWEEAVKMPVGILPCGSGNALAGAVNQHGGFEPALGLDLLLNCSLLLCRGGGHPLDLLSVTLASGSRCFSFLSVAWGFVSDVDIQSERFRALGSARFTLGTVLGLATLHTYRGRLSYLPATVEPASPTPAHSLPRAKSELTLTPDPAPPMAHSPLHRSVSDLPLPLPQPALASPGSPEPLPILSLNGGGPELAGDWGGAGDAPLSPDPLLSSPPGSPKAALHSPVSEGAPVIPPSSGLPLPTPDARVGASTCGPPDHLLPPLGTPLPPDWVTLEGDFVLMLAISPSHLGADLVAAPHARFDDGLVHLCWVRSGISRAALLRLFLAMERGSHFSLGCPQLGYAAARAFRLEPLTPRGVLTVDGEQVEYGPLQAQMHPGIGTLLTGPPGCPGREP

[3] = molecular target: T1, Sphingosine kinase 1; assay: Inhibition of recombinant SphK1 expressed in baculovirus infected Sf9 cells using D-erythro-sphingosine as substrate and [32gammaP]ATP by scintillation counting
[4] = molecular target: T3, Sphingosine kinase 2 (Homo sapiens, UniProt Q9NRA0); assay: Inhibition of recombinant SphK2 expressed in baculovirus infected Sf9 cells using D-erythro-sphingosine as substrate and [32gammaP]ATP by scintillation counting
T3 sequence (Q9NRA0 whole entry): T2 sequence (whole entry)

[5] = molecular target: T3, Sphingosine kinase 2; assay: Inhibition of human recombinant SphK2 using NBD-sphingosine as substrate after 2 hrs by HPLC analysis
[6] = Selectivity ratio of Ki for recombinant SphK1 to Ki for recombinant SphK2
[7] = molecular target: T3, Sphingosine kinase 2; assay: Inhibition of SphK2 using sphingosine as substrate and [32gammaP]ATP after 15 to 20 mins by Cerenkov counting analysis

T1 sequence (Q9NYA1 whole entry): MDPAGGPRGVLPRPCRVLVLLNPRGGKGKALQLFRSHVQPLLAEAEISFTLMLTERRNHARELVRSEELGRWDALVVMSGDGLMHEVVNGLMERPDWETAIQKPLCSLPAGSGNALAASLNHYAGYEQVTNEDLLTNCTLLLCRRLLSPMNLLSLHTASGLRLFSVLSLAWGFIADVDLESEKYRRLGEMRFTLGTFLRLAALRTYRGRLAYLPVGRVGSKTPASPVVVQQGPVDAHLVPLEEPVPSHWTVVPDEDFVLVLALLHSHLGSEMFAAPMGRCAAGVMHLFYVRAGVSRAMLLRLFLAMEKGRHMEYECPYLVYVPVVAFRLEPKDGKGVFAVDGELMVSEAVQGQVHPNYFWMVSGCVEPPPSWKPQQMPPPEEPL

Row | SMILES | Activity [1] [%] | Activity [2] [%] | Ki [3] [µM] | Ki [4] [µM] | Ki [5] [µM] | Ratio Ki [6] | Ki [7] [µM]
1 | CCCCCCCCCCCCCC(=O)c1ccc([C@H]2CC[C@H]([N+](C)(C)CCC)CC2)cc1 | 73 | 50 | – | – | – | – | –
2 | CCCCCCCCC#Cc1ccc([C@H]2CC[C@H]([N+](C)(C)CCC)CC2)cc1 | 61 | 78 | – | – | – | – | –
3 | CCCCCCCC#Cc1ccc([C@H]2CC[C@H]([N+](C)(C)CCC)CC2)cc1 | 87 | 100 | – | – | – | – | –
4 | CCCCCCCCCCCCCCCC(=O)c1ccc([C@H]2CC[C@H]([N+](C)(C)CCC)CC2)cc1 | 77 | 58 | – | – | – | – | –
5 | CCCCCCCOc1ccc([C@H]2CC[C@H]([N+](C)(C)CCC)CC2)cc1 | 100 | 70 | – | – | – | – | –
6 | CCCCCCCCCC#Cc1ccc([C@H]2CC[C@H]([N+](C)(C)CCC)CC2)cc1 | 62 | 28 | – | – | – | – | –
7 | CCCCCCCCCCCCc1ccc([C@H]2CC[C@H]([N+](C)(C)CCC)CC2)cc1 | 63 | 26 | 13 | 8 | – | – | –
8 | CCCCCC(=O)c1ccc([C@H]2CC[C@H]([N+](C)(C)CCC)CC2)cc1 | 89 | 71 | – | – | – | – | –
9 | O=C(NCc1ccncc1)C12CC3CC(C1)CC(c1ccc(Cl)cc1)(C3)C2 [ABC-294640] | – | – | – | – | 9.8 | – | –
10 | CCCCCCCCc1ccc(CC[C@@](N)(CO)COC)cc1 | – | – | – | – | – | – | 16.5

Other lines, results leading:

Row | Activity [1] [%] | Activity [2] [%] | Ki [3] [µM] | Ki [4] [µM] | Ki [5] [µM] | Ratio Ki [6] | Ki [7] [µM] | SMILES
11 | 100 | 64 | 22 | 21 | – | – | – | CCCCCCCCc1ccc([C@H]2CC[C@H]([N+](C)(C)CCC)CC2)cc1
12 | 88 | 41 | – | – | – | – | – | CCCCCCCCCCCC(=O)c1ccc([C@H]2CC[C@H]([N+](C)(C)CCC)CC2)cc1
13 | 98 | 98 | 35 | 43 | – | – | – | CCCCCCc1ccc([C@H]2CC[C@H]([N+](C)(C)CCC)CC2)cc1
14 | 44 | 50 | 15 | 11 | – | – | – | CCCCCCCCCCCc1ccc([C@H]2CC[C@H]([N+](C)(C)CCC)CC2)cc1
15 | 94 | 70 | 27 | 29 | – | – | – | CCCCCCCCCCCCCCCCc1ccc([C@H]2CC[C@H]([N+](C)(C)CCC)CC2)cc1
16 | 67 | 26 | 35 | 43 | – | – | – | CCCCCCCCCCc1ccc([C@H]2CC[C@H]([N+](C)(C)CCC)CC2)cc1
17 | 76 | 38 | 36 | 7 | – | 3 | – | CCCCCCCCCCCCCCc1ccc([C@H]2CC[C@H]([N+](C)(C)CCC)CC2)cc1
18 | 93 | 75 | – | – | – | – | – | CCCCCCCCCC(=O)c1ccc([C@H]2CC[C@H]([N+](C)(C)CCC)CC2)cc1
19 | 79 | 40 | – | – | – | – | – | CCCCCCCCCCC(=O)c1ccc([C@H]2CC[C@H]([N+](C)(C)CCC)CC2)cc1
